Experimental data from patent EP2886535A1, “Novel veterinary isometamidium compositions and similar substances and uses thereof” (Ceva Sante Animale, priority 2013, dated 2015).
Read-outs that look alike come from different tables or passages of the source.

Experiments:
T. congolense [1] = details: mice, Brown et al. 1961; purity of compounds unsatisfactory; cited from earlier work
T. congolense [2] = assay: In vitro drug sensitivity test on cultured bloodstream forms, 48 h; type: cell-based; details: for IC50: 48 h exposure, 34 °C; for activité trypanocide inférieure à celle des formulations commerciales: versus Veridium and Samorin, 48 h, up to about
Text: (§1) Les souches T. congolense et T. b. brucei (formes sanguines) ont été cultivées in vitro selon le protocole décrit par Baltz et al. (Embo. J. 1985, 4, 1273-1277) et Coustou et al. (PLOS Negl. Trop. Dis., 2010, 4, 618).
(§2) L'isométamidium a été synthétisé et a été purifié par HPLC (220 nm). L'analyse de sa structure a été confirmée par LC /MS et par RMN 1H et 13C et un degré de pureté de 99,7 % a été obtenu. L'isométamidium pur ainsi que les formulations commerciales Veridium® et Samorin® ont été dissous dans de l'eau distillée (10 mg / ml) et ont été conservés à -20°C avant utilisation.
(§3) Les trypanosomes sont ajoutés dans des plaques de culture cellulaire 96 puits incubées à 34 °C (T. congolense) ou à 37 °C (T. b. brucei) sous atmosphère de CO2 (4 %) pendant 4 heures avant l'ajout des composés qui ont été dilués en série 1/10^eme. 100 µl de chaque dilution ont été ensuite ajoutés à 100 µl de culture dans les puits (2 puits pour chaque dilution de 1 mg/ml jusqu'à 1.10^-19 mg/ml) puis le milieu est incubé à 34 °C (T. congolense) ou à 37 °C (T. b. brucei) sous atmosphère de CO2 (4 %) pendant 48 heures. Les IC50 (Concentration qui réduit de 50% la population parasitaire au bout de 48 heures de culture) ont été calculées en utilisant le logiciel de traitement de données Sigmaplot version 12.
(§4) Les souches T. congolense et T. b. brucei (formes sanguines), les différents composés et leur IC50 ont été, respectivement, cultivées in vitro, préparés et évaluées selon le protocole décrit dans l'exemple 1. Les puretés respectives pour chaque composé obtenu étaient de 97,6 % pour l'isomère bleu, 95,4% pour l'isomère rouge et 97,9 % pour le composé disubstitué.

T. b. brucei = assay: as above; type: cell-based; details: for IC50: 48 h exposure, 37 °C
Text: as §1, §2, §3, §4

T. congolense [3] = assay: In vivo curative and preventive activity in infected and monthly re-infected mice; design: species or system souris femelles swiss (CD1); details: for Nombre de souris avec une parasitemia positive: n=5; for activité curative et préventive (durée): dose 1 mg/kg
Protocol: La souche T. congolense est cultivée et les différents composés sont préparés selon les protocoles de culture et de préparation décrits pour les tests in vitro (Exemples 1 et 2).
Des parasites de la souche de T. congolense ont été initialement propagés dans des souris femelles swiss (CD1) âgées de 8 semaines (200 mg/kg). Ces souris sont ensuite infectés par voie intrapéritonéale avec 10^5 trypanosomes de souche T. congolense dans un volume final de 200 µl de tampon phosphate glucose (137 mM NaCl, 10 mM phosphate, […], pH 7,4, 1% glucose). Les souris sont alors traitées par les composés à tester 24 heures après l'infection (5 souris traités par composé à tester + un groupe témoin). Chaque composé testé est injecté par voie intrapéritonéale et à des concentrations de 1 et 0,1 mg/kg de poids corporel dans un volume final de 100 µl d'eau stérile. Les souris témoins non traitées reçoivent 100 µl d'eau stérile après infection. La parasitémie a été évaluée 2 fois par semaine au microscope à partir d'échantillons de sang prélevés sur la veine caudale. Afin d'évaluer la persistance des composés, les souris qui étaient parasite-négatives après un mois ont été ré-infectées avec 10^5 trypanosomes. La réinfection a été répétée après le deuxième et troisième mois à partir de l'infection initiale et du traitement si les souris infectées étaient toujours aparasitémiques (sans parasites dans le sang). La réinfection a été réalisée avec des parasites provenant de souris témoins infectées de manière chronique pour éviter une réponse immunitaire immédiate due à la présence d'anticorps homologues anti-VSG. Deux souris non-traitées (Témoin) ont été infectées à chaque infection et réinfection. Le traitement a été considéré inefficace quand plus de 2 souris sur 5 dans un groupe étaient parasite-positives.

T. congolense [4] = details: cattle, Finelle et al. 1963; cited from earlier work
[5] = Trypanosoma congolense, read-out: IC50
[6] = Trypanosoma brucei, read-out: IC50

| SMILES | activité trypanocide in-vivo (T. congolense [1]) | IC50 (T. congolense [2]) | IC50 (T. congolense [2]; [5]) [µg/mL] | IC50 (T. b. brucei) | IC50 (T. b. brucei; [6]) [µg/mL] | Nombre de souris avec une parasitemia positive (T. congolense [3]; dose 0.1 mg/kg i.p., 1 mois) | activité curative et préventive (durée) (T. congolense [3]) | Nombre de souris avec une parasitemia positive (T. congolense [3]; dose 1 mg/kg i.p., 1 mois) | Nombre de souris avec une parasitemia positive (T. congolense [3]; dose 1 mg/kg i.p., 2 mois) | activité trypanocide inférieure à celle des formulations commerciales (T. congolense [2]) [fois] | Nombre de souris avec une parasitemia positive (T. congolense [3]; dose 0.1 mg/kg i.p., 2 mois) | Nombre de souris avec une parasitemia positive (T. congolense [3]; dose 1 mg/kg i.p., 3 mois) | other results |
| --- | --- | --- | --- | --- | --- | --- | --- | --- | --- | --- | --- | --- | --- |
| CC[n+]1c(-c2ccccc2)c2cc(N=NNc3cccc(C(=N)N)c3)ccc2c2ccc(N=NNc3cccc(C(=N)N)c3)cc21 [Composé disubstitué pur, 3,8-di-(3-m-amidinophenyltriazeno)-5-éthyl-6-phénylphénanthridium] | activité prophylactique et non curative | 66,27 ± 14,37 ng/ml | 0.0663 | >1 µg/mL | > 1 | 5 | pendant au moins trois mois | 0 | 0 | – | – | – | Nombre de souris avec une parasitemia positive (T. congolense [3]; dose 1 mg/kg i.p., 3 mois, listed as Composé disubstitué, 1 mg/kg): 1; Nombre de souris avec une parasitemia positive (T. congolense [3]; dose 1 mg/kg i.p., 3 mois, listed as composé disubstitué, 1 mg/kg): seule une souris est parasite-positive; Nombre de souris avec une parasitemia positive (T. congolense [3]; dose 1 mg/kg i.p., 4 mois, listed as Composé disubstitué, 1 mg/kg): 4; Nombre de souris avec une parasitemia positive (T. congolense [3]; dose 1 mg/kg i.p., 4 mois, listed as composé disubstitué, 1 mg/kg): la seule souris parasite-négative; protection / activité curative (T. congolense [4]): permettait de protéger les bovins contre T. congolense, mais était dépourvu de toute activité curative |
| CC[n+]1c(-c2ccccc2)c2c(N=Nc3cccc(C(=N)N)c3)c(N)ccc2c2ccc(N)cc21 [Isomère bleu, 7-(m-amidinophényldiazo)-3,8-diamino-5-éthyl-6-phényl phénanthridinium, reference compound] | activité trypanocide curative | 7,11 ± 0,76 ng/ml | 0.00711 | 12,01 ± 2,22 ng/ml | 0.012 | 0 | n'est plus significative au bout de deux mois | 0 | 4 | ≤ 10 | 5 | – | protection des souris d'une infection (durée) (T. congolense [3]; dose 0,1 mg/kg): ne sont actifs que pendant un mois |
| CC[n+]1c(-c2ccccc2)c2cc(N)ccc2c2ccc(N=NNc3cccc(C(=N)N)c3)cc21 [Isomère rouge, 3-(3-m-amidinophényl-2-triazeno)-8-amino-5-éthyl-6-phénylphénanthridinium] | – | 3,63 ± 0,55 ng/ml | 0.00363 | 202,15 ± 62,92 ng/ml | 0.202 | 0 | – | 0 | 1 | ≤ 10 | 5 | 5 | activité trypanocide inférieure à celles des compositions commerciales (T. b. brucei; versus commercial compositions, 48 h): ~20 fois |
| CC[n+]1c(-c2ccccc2)c2cc(N/N=N/c3cccc(C(=N)N)c3)ccc2c2ccc(N)cc21 [Isométamidium pur, 8-(3-m-amidinophényl-2-triazeno)-3-amino-5-éthyl-6-phénylphénanthridinium] | – | 0,56 ± 0,05 ng/ml | 0.00056 | 9,24 ± 2,13 ng/ml | 0.00924 | 0 | – | 0 | 0 | – | 0 | 0 | Nombre de souris avec une parasitemia positive (T. congolense [3]; dose 0.1 mg/kg i.p., 3 mois): 0; Nombre de souris avec une parasitemia positive (T. congolense [3]; dose 0.1 mg/kg i.p., 4 mois): 5; Nombre de souris avec une parasitemia positive (T. congolense [3]; dose 1 mg/kg i.p., 4 mois): 5 |
